According to US6323014A, “Method and composition for enhancing the activity of an enzyme” (Unilever Home & Personal Care division of Conopco, Inc., priority 1999, dated 2001):

How the values were obtained:
[1] = system: phenol oxidizing enzyme from Acremonium murorum; assay: Bleaching of tomato stains on cotton swatches, phenol oxidizing enzyme/enhancer system, 50 mM Tris buffer wash solution; format: biochemical; conditions: enhancer 250 μM, 50 mM Tris buffer pH 9, 30 minutes, 30° C.; for ΔE, stain bleach performance, Oily Tomato Stain, With enzyme / ΔE, stain bleach performance, Tomato Extract, With enzyme: enzyme 20 mg/l
Description: (§1) The potential of the various enhancer to boost the bleach performance of phenol oxidizing enzyme was assessed by washing cotton swatches soiled with tomato stains. Two different bleach monitors were used:
(§2) Tomato extract material was prepared by acetone extraction of the chromophores from concentrated tomato paste. For the preparation of the stains, the colored acetone solution was applied to cotton swatches.
(§3) Oily tomato stains were prepared by applying heated concentrated tomato paste, to which 5 wt % Soya oil was added, to cotton swatches.
(§4) The pH of the wash solution was set to pH 9. Purified phenol oxidizing enzyme from Acremonium murorum was added to the wash solution at 20 mg/l. The enzyme from Acremonium murorum is decribed in WO-A-00/05349 (Unilever). The enhancers were all dosed at 250 μM. The wash solution was 50 mM Tris buffer.
(§5) The swatches were washed during 30 minutes, at 30° C. After the wash, the swatches were tumble-dried and the reflectance spectra were measured using a Minolta spectrometer. The color differences between the swatch before and after the wash data were expressed in the CIELAB L*a*b* color space. In this color space, L* indicates lightness and a* and b* are the chromaticity coordinates. Color differences between two swatches are expressed as ΔE, which is calculated from the following equation: […]

[2] = system: phenol oxidizing enzyme from Acremonium murorum; assay: Bleaching of tomato stains on cotton swatches, phenol oxidizing enzyme/enhancer system, detergent formulation wash solution; format: biochemical; conditions: enhancer 250 μM, detergent formulation 2 g/l, 30 minutes, 30° C.; for ΔE, stain bleach performance, Oily Tomato Stain, With enzyme / ΔE, stain bleach performance, Tomato Extract, With enzyme: enzyme 20 mg/l
Description: as §1, §2, §3, §4, §5
Example 1 was repeated, using this time as wash solution a detergent formulation having the composition shown below, at a concentration of 2 g/l. The amounts are given in weight %.

Row | Compound | ΔE, stain bleach performance, Oily Tomato Stain, With enzyme [1] | ΔE, stain bleach performance, Oily Tomato Stain, Without enzyme [1] | ΔE, stain bleach performance, Tomato Extract, With enzyme [1] | ΔE, stain bleach performance, Tomato Extract, Without enzyme [1] | ΔE, stain bleach performance, Oily Tomato Stain, With enzyme [2] | ΔE, stain bleach performance, Oily Tomato Stain, Without enzyme [2] | ΔE, stain bleach performance, Tomato Extract, With enzyme [2] | ΔE, stain bleach performance, Tomato Extract, Without enzyme [2]
1 | Cc1ccc(S(=O)(=O)Nc2cc(Br)c(O)c(Br)c2Br)cc1 [3Brphenol3MeBSA, N-(2,3,5-tribromo-4-hydroxyphenyl) -4-Methyl benzenesulfonamide] | 6.21 | 1.56 | 19.59 | 10.86 | 11.71 | 6.87 | 27.57 | 12.86
2 | O=S(=O)(Nc1cc(Br)c(O)c(Br)c1Br)c1ccccc1 [3BrphenolBSA, N-(2,3,5-tribromo-4-hydroxyphenyl)-benzenesulfonamide] | 5.62 | 4.18 | 19.97 | 10.33 | 10.95 | 6.89 | 26.87 | 12.99
